Test results as given in ChEMBL document CHEMBL1144007, “Activity of Mannich bases of 7-hydroxycoumarin against Flaviviridae” (Bioorg Med Chem, 2008).
The source made the active and inactive calls. No rule for the calls is given here.

Columns and labels:
Reovirus sp. = test: Antiviral activity against Reovirus; type: functional, organism-based
Vaccinia virus = test: Antiviral activity against vaccinia virus; type: functional, organism-based; settings: Orthopoxvirus vaccinia
Poliovirus 1 = test: Antiviral activity against Human poliovirus 1 Sabin; type: functional
[1] = tested on: Vesicular stomatitis virus; test: Antiviral activity against vesicular stomatitis virus; type: functional, organism-based
[2] = tested on: Respiratory syncytial virus; test: Antiviral activity against RSV A2 in VERO76 cells assessed as reduction of plaque number by MTT method; type: functional, organism-based; settings: human respiratory syncytial virus, A2, Vero 76
[3] = Cytotoxicity against human MT4 cells after 96 hrs by MTT method; type: cell-based
Yellow fever virus = test: Antiviral activity against YFV in BHK cells assessed as protection from virus-induced cytopathogenicity by MTT method; type: functional, organism-based
[4] = tested on: Bovine viral diarrhea virus 1; test: Antiviral activity against BVDV NADL in MDBK cells assessed as protection from virus-induced cytopathogenicity by MTT method; type: functional, organism-based; settings: Bovine viral diarrhea virus isolates and strains
[5] = tested on: Human immunodeficiency virus 1; test: Antiviral activity against HIV1; type: functional, organism-based

Compound | Activity (Reovirus sp.) | Activity (Vaccinia virus) | Activity (Poliovirus 1) | Activity [1] | EC50 [2] [µM] | CC50 at 96 h [3] [µM] | EC50 (Yellow fever virus) [µM] | EC50 [4] [µM] | Activity [5]
Cc1cc(=O)oc2c(CN3CCN(Cc4ccc5c(c4)OCO5)CC3)c(O)ccc12 | inactive | inactive | inactive | inactive | > 100 | 72 | > 100 | 75 | inactive
Cc1cc(=O)oc2c(CN(C)CC(=O)O)c(O)ccc12 | inactive | inactive | inactive | inactive | > 100 | > 100 | > 100 | > 100 | inactive
CCN(CC)c1oc2cc(OC(C)=O)ccc2c(=O)c1Cc1c(OC(C)=O)ccc2c(C)cc(=O)oc12 | inactive | inactive | inactive | inactive | 11 | 44 | > 100 | > 100 | inactive
CCN(CC)c1oc2ccc3ccccc3c2c(=O)c1Cc1c(OC(C)=O)ccc2ccc(=O)oc12 | inactive | inactive | inactive | inactive | > 100 | > 100 | > 100 | > 100 | inactive
CC(=O)Oc1ccc2c(C)cc(=O)oc2c1Cc1c[nH]c2ccccc12 | inactive | inactive | inactive | inactive | > 100 | 100 | > 81 | ≥ 100 | inactive
CCN(CC)c1oc2cc(OC)ccc2c(=O)c1Cc1c(O)ccc2c(C)cc(=O)oc12 | inactive | inactive | inactive | inactive | > 100 | > 100 | > 100 | > 100 | inactive
Cc1cc(=O)oc2c(CN3CCc4ccccc4C3)c(OC(=O)c3ccccc3)ccc12 | inactive | inactive | inactive | inactive | 18 | > 100 | > 100 | > 100 | inactive
Cc1cc(=O)oc2c(CN3CCN(C/C=C/c4ccccc4)CC3)c(OC(=O)c3ccccc3)ccc12 | inactive | inactive | inactive | inactive | > 80 | 45 | > 100 | 19 | inactive
Cc1cc(=O)oc2c(CN3CCc4ccccc4C3)c(O)ccc12 | inactive | inactive | inactive | inactive | > 100 | > 100 | > 100 | > 100 | inactive
O=c1cnn([C@@H]2O[C@H](CO)[C@@H](O)[C@H]2O)c(=O)[nH]1 [6-AZAURIDINE] | inactive | inactive | inactive | inactive | 1 | 0.2 | 25 | > 25 | inactive
O=c1ccc2ccc(O)c(CN3CCOCC3)c2o1 | inactive | inactive | inactive | inactive | > 100 | > 100 | > 100 | > 100 | inactive
CC(=O)Oc1ccc2c(C)cc(=O)oc2c1Cc1c(-c2ccccc2)[nH]c2ccccc12 | inactive | inactive | inactive | inactive | > 100 | > 100 | > 100 | > 100 | inactive
Cc1cc(=O)oc2c(CN3CCN(C/C=C/c4ccccc4)CC3)c(O)ccc12 | inactive | inactive | inactive | inactive | > 100 | 28 | > 53 | > 18 | inactive
CC(=O)c1ccc(N2CCN(Cc3c(O)ccc4ccc(=O)oc34)CC2)cc1 | inactive | inactive | inactive | inactive | > 100 | 18 | > 100 | > 100 | inactive
Cc1cc(=O)oc2c(CN3CCCCC3)c(O)ccc12 | inactive | inactive | inactive | inactive | > 100 | > 100 | > 100 | > 100 | inactive
CCC(=O)Oc1ccc2c(C)cc(=O)oc2c1Cc1c(C)[nH]c2ccccc12 | inactive | inactive | inactive | inactive | 45 | 31 | > 100 | > 87 | inactive
CCC(=O)Oc1ccc2c(C)cc(=O)oc2c1Cc1c(-c2ccccc2)[nH]c2ccccc12 | inactive | inactive | inactive | inactive | > 100 | 38 | > 27 | 7 | inactive
Cc1[nH]c2ccccc2c1Cc1c(OC(=O)CCCC(=O)O)ccc2ccc(=O)oc12 | inactive | inactive | inactive | inactive | > 92 | 27 | > 100 | > 67 | inactive
CCC(=O)Oc1ccc2ccc(=O)oc2c1Cc1c(C)[nH]c2ccccc12 | inactive | inactive | inactive | inactive | > 100 | 80 | > 100 | > 51 | inactive
CC(=O)c1ccc(N2CCN(Cc3c(O)ccc4c(C)cc(=O)oc34)CC2)cc1 | inactive | inactive | inactive | inactive | > 100 | 59 | > 100 | > 100 | inactive
CCCOc1ccc2c(C)cc(=O)oc2c1CN1CCCCC1 | inactive | inactive | inactive | inactive | > 100 | > 100 | > 100 | 38 | inactive
CCOC(=O)N1CCN(Cc2c(OC(=O)c3ccccc3)ccc3ccc(=O)oc23)CC1 | inactive | inactive | inactive | inactive | 90 | > 100 | > 100 | > 100 | inactive
CC(=O)Oc1ccc2ccc(=O)oc2c1Cc1c(N(C)C)oc2ccc3ccccc3c2c1=O | inactive | inactive | inactive | inactive | > 30 | 80 | > 52 | > 48 | inactive
COCCN(CCOC)c1oc2cc(OC)ccc2c(=O)c1Cc1c(OC(C)=O)ccc2c(C)cc(=O)oc12 | inactive | inactive | inactive | inactive | 5 | > 100 | > 100 | 61 | inactive
Cc1cc(=O)oc2c(CN3CCOCC3)c(OC(=O)c3ccccc3)ccc12 | inactive | inactive | inactive | inactive | > 100 | > 100 | > 100 | > 100 | inactive
CCCOc1ccc2ccc(=O)oc2c1CN1CCN(C/C=C/c2ccccc2)CC1 | inactive | inactive | inactive | inactive | > 100 | 16 | > 48 | 15 | inactive
CN1CCN(Cc2c(O)ccc3ccc(=O)oc23)CC1 | inactive | inactive | inactive | inactive | > 100 | > 100 | > 100 | > 100 | inactive
COCCN(CCOC)c1oc2cc(OC)ccc2c(=O)c1Cc1c(OC(C)=O)ccc2ccc(=O)oc12 | inactive | inactive | inactive | inactive | 7 | > 100 | > 100 | > 100 | inactive
